Experimental data as given in US20240254129A1, “HETEROCYCLIC COMPOUNDS AND USES THEREOF” (Kumquat Biosciences Inc., priority 2021, published 2024).
Read-outs that look alike come from different tables or passages of the source.

Columns and labels:
[1] = molecular target: GST-tagged K-Ras mutant / His-tagged hSOS1 (Homo sapiens, UniProt P01116); assay: HTRF assay, K-Ras mutant / SOS1 interaction; assay type: binding; details: read-out: IC50 against mutant Kras
Method in brief: (§1)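 HTRF read-out of GST-tagged K-Ras (mutant or wildtype) binding His-hSOS1, via anti-GST-Eu donor and anti-6His-XL665 acceptor; buffer ~5 mM HEPES pH 7.4, ~150 mM NaCl, ~1 mM DTT, 0.05% BSA, 0.0025% Igepal. Read after ≥~10 min; duplicates, 10 μM to 0.01 μM; IC50 from 665/620 nm ratio.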

[2] = molecular target: T1, wildtype Kras / hSOS1 (Homo sapiens, UniProt P01116); assay: HTRF assay, wildtype Kras / SOS1 interaction; assay type: binding; details: read-out: IC50 against wildtype Kras
T1 construct: made in house; host or cells: E. coli BL21 (DE3)
T1 sequence (P01116 1-188 isoform P01116-2): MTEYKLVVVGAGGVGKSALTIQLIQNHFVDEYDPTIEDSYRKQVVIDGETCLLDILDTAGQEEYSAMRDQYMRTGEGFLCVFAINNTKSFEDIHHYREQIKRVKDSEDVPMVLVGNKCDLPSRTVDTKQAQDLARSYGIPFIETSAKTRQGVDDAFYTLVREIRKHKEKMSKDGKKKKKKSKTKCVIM
Method in brief: as §1

[3] = compound nos. 102-196, general methodology of example 5

Chain of GST-tagged K-Ras mutant / His-tagged hSOS1 (P01116 whole entry G12D, form open): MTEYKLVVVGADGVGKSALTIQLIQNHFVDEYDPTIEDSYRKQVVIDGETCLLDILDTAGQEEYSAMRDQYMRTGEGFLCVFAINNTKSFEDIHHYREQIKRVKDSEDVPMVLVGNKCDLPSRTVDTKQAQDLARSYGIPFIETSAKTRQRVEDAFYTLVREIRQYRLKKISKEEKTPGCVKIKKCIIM

| Compound | IC50 [1, 3] | IC50 [2, 3] | IC50 ([1]; compound nos. 401-703) | IC50 ([2]; compound nos. 401-703) |
| --- | --- | --- | --- | --- |
| CN1CCC[C@H]1COc1nc(N2CCNCC(C)(C)C2)c2cc(Cl)c(-c3cccc4sc(N)nc34)c(F)c2n1 [Compound 118, 4-(6-chloro-4-(6,6-dimethyl-1,4-diazepan-1-yl)-8-fluoro-2-(((S)-1-methylpyrrolidin-2-yl)methoxy)quinazolin-7-yl)benzo[d]thiazol-2-amine] | > 500 nM | > 500 nM | – | – |
| Nc1ccc(-c2ccc(O)cc2-c2c(Cl)cc3c(N4CC5CCC(C4)N5)nc(OCC45CCCN4CCC5)nc3c2F)cc1 [Compound 445, 2-(4-(3,8-diazabicyclo-[3.2.1]octan-3-yl)-6-chloro-8-fluoro-2-((tetrahydro-1H-pyrrolizin-7a(5H)-yl)meth-oxy)quinazolin-7-yl)-4′-amino-[1,1′-biphenyl]-4-ol] | – | – | > 500 nM | < 500 nM |
| Cc1ccnc(C(C)C)c1-n1c(=O)nc(N2CCNCC(F)(F)C2)c2cc(F)c(-c3c(O)cccc3F)nc21 [Compound 195, 4-(6,6-difluoro-1,4-diazepan-1-yl)-6-fluoro-7-(2-fluoro-6-hydroxyphenyl)-1-(2-isopropyl-4-methylpyridin-3-yl)pyrido[2,3-d]pyrimidin-2(1H)-one] | > 500 nM | > 500 nM | – | – |
| Cc1c(N)sc2cccc(-c3ccc4c(N5CC6CCC(C5)N6)nc(OC[C@@]56CCCN5C[C@H](F)C6)nc4c3F)c12 [Compound 437, 4-(4-(3,8-diazabicyclo-[3.2.1]octan-3-yl)-8-fluoro-2-(((2R,7aS)-2-fluorotetra-hydro-1H-pyrrolizin-7a(5H)-yl)methoxy)quinazolin-7-yl)-3-methylbenzo[b]thio-phen-2-amine] | – | – | > 500 nM | < 500 nM |
| Nc1nc2c(-c3c(Cl)cc4c(N5CCNCC(F)(F)C5)nc(OC[C@@]56CCCN5C[C@H](F)C6)nc4c3F)ccc(F)c2s1 [Compound 133, 4-(6-chloro-4-(6,6-difluoro-1,4-diazepan-1-yl)-8-fluoro-2-(((2R,7aS)-2-fluorotetrahydro-1H-pyrrolizin-7a(5H)-yl)methoxy)quinazolin-7-yl)-7-fluorobenzo[d]thiazol-2-amine] | < 500 nM | < 500 nM | – | – |
| Nc1nc2c(-c3c(Cl)cc4c(N5CCC[C@@H](N)CC5)nc(OC[C@@]56CCCN5C[C@H](F)C6)nc4c3F)ccc(F)c2s1 [Compound 434, 4-(4-((R)-4-aminoazepan-1-yl)-6-chloro-8-fluoro-2-(((2R,7aS)-2-fluorotetra-hydro-1H-pyrrolizin-7a(5H)-yl)methoxy)quinazolin-7-yl)-7-fluorobenzo[d]thiazol-2-amine] | – | – | < 500 nM | < 500 nM |
| CC1CCCN(c2nc(OC[C@@H]3CCCN3C)nc3c(F)c(-c4cccc5sc(N)nc45)c(Cl)cc23)CC1 (stereo partly drawn) [Compound 416, 4-(6-chloro-8-fluoro-4-(4-methylazepan-1-yl)-2-(((S)-1-methylpyrrolidin-2-yl)-methoxy)quinazolin-7-yl)-benzo[d]thiazol-2-amine] | – | – | > 500 nM | < 500 nM |
| Nc1nc2c(-c3c(Cl)cc4c(N5CCCCC(F)(F)C5)nc(OCC56CCCN5CCC6)nc4c3F)ccc(F)c2s1 [Compound 117, 4-(6-chloro-4-(3,3-difluoro-azepan-1-yl)-8-fluoro-2-((tetrahydro-1H-pyrrolizin-7a(5H)-yl)methoxy)quin-azolin-7-yl)-7-fluorobenzo-[d]thiazol-2-amine] | < 500 nM | < 500 nM | – | – |
| N#CCCc1cc2c(N3CC4CCC(C3)N4)nc(OC[C@@]34CCCN3C[C@H](F)C4)nc2c(F)c1-c1cccc2ccc(F)c(Cl)c12 [Compound 451, 3-(4-(3,8-diazabicyclo-[3.2.1]octan-3-yl)-7-(8-chloro-7-fluoronaphthalen-1-yl)-8-fluoro-2-(((2R,7aS)-2-fluorotetrahydro-1H-pyrrolizin-7a(5H)-yl)meth-oxy)quinazolin-6-yl)pro-panenitrile] | – | – | > 500 nM | < 500 nM |
| CN1CCC[C@H]1COc1nc2c(c(N3CCNCC(F)(F)C3)n1)CCC(c1cccc3sc(N)nc13)C2 (stereo partly drawn) [Compound 432, 4-(4-(6,6-difluoro-1,4-diazepan-1-yl)-2-(((S)-1-methylpyrrolidin-2-yl)methoxy)-5,6,7,8-tetrahydroquinazolin-7-yl)benzo[d]thiazol-2-amine] | – | – | > 500 nM | < 500 nM |

Next, values leading:

| IC50 [1, 3] | IC50 [2, 3] | IC50 ([1]; compound nos. 401-703) | IC50 ([2]; compound nos. 401-703) | Compound |
| --- | --- | --- | --- | --- |
| – | – | > 500 nM | > 500 nM | Nc1c(-c2c(Cl)cc3c(N4CC5CCC(C4)N5)nc(OCC45CCCN4CCC5)nc3c2F)cccc1C1CC1 [Compound 695, 2-(4-(3,8-diazabicyclo-[3.2.1]octan-3-yl)-6-chloro-8-fluoro-2-((tetrahydro-1H-pyrrolizin-7a(5H)-yl)meth-oxy)quinazolin-7-yl)-6-cyclopropylaniline] |
| – | – | < 500 nM | > 500 nM | CNCCCN1[C@@H]2CC[C@H]1CN(c1nc(OCC34CCCN3CCC4)nc3c(F)c(-c4ccc(F)c5sc(N)nc45)c(Cl)cc13)C2 [Compound 594, 4-(6-chloro-8-fluoro-4-((1R,5S)-8-(3-(methyl-amino)propyl)-3,8-diaza-bicyclo[3.2.1]octan-3-yl)-2-((tetrahydro-1H-pyrrol-izin-7a(5H)-yl)methoxy)-quinazolin-7-yl)-7-fluoro-benzo[d]thiazol-2-amine] |
| – | – | < 500 nM | > 500 nM | CN1CCC[C@H]1COc1nc(N2CCCC(C(N)=O)CC2)c2cc(Cl)c(-c3cccc4sc(N)nc34)c(F)c2n1 (stereo partly drawn) [Compound 581, 1-(7-(2-aminobenzo[d]-thiazol-4-yl)-6-chloro-8-fluoro-2-(((S)-1-methyl-pyrrolidin-2-yl)methoxy)-quinazolin-4-yl)azepane-4-carboxamide] |
| – | – | < 500 nM | > 500 nM | Nc1nc2c(-c3c(Cl)cc4c(N5CC6CCCC5CN6)nc(OC[C@@]56CCCN5C[C@H](F)C6)nc4c3F)ccc(F)c2s1 (stereo partly drawn) [Compound 685, 4-(4-(6,8-diazabicyclo-[3.2.2]nonan-6-yl)-6-chloro-8-fluoro-2-(((2R,7aS)-2-fluorotetrahydro-1H-pyrrol-izin-7a(5H)-yl)methoxy)-quinazolin-7-yl)-7-fluoro-benzo[d]thiazol-2-amine] |
| – | – | < 500 nM | > 500 nM | Nc1nc2c(-c3c(Cl)cc4c(N5CC6CCCC(C5)NC6)nc(OC[C@@]56CCCN5C[C@H](F)C6)nc4c3F)ccc(F)c2s1 (stereo partly drawn) [Compound 512, 4-(4-(3,9-diazabicyclo-[3.3.2]decan-3-yl)-6-chloro-8-fluoro-2-(((2R,7aS)-2-fluorotetrahydro-1H-pyrrol-izin-7a(5H)-yl)methoxy)-quinazolin-7-yl)-7-fluoro-benzo[d]thiazol-2-amine] |
| – | – | > 500 nM | > 500 nM | Cc1ccc2cnn(C#N)c2c1-c1c(Cl)cc2c(N3CC4CCC(C3)N4)nc(OC[C@@]34CCCN3C[C@H](F)C4)nc2c1F [Compound 678, 7-(4-(3,8-diazabicyclo-[3.2.1]octan-3-yl)-6-chloro-8-fluoro-2-(((2R,7aS)-2-fluorotetrahydro-1H-pyrrol-izin-7a(5H)-yl)methoxy)-quinazolin-7-yl)-6-methyl-1H-indazole-1-carbonitrile] |
| – | – | > 500 nM | > 500 nM | Nc1ccc2cccc(-c3c(Cl)cc4c(N5CC6CCC(C5)N6)nc(OC[C@@]56CCCN5C[C@H](F)C6)nc4c3F)c2n1 [Compound 606, 8-(4-(3,8-diazabicyclo-[3.2.1]octan-3-yl)-6-chloro-8-fluoro-2-(((2R,7aS)-2-fluorotetrahydro-1H-pyrrol-izin-7a(5H)-yl)methoxy)-quinazolin-7-yl)quinolin-2-amine] |
| – | – | > 500 nM | > 500 nM | COc1nc2c(N3CC4CCC(C3)N4)nc(OC[C@@]34CCCN3C[C@H](F)C4)nc2cc1-c1cc(O)cc2ccccc12 [Compound 533, 4-(4-(3,8-diazabicyclo-[3.2.1]octan-3-yl)-2-(((2R,7aS)-2-fluorotetra-hydro-1H-pyrrolizin-7a(5H)-yl)methoxy)-6-methoxypyrido-[3,2-d]-pyrimidin-7-yl)naphthalen-2-ol] |
| – | – | < 500 nM | < 500 nM | N#CCCc1cc2c(N3CC4CCC(C3)N4)nc(OC[C@@]34CCCN3C[C@H](F)C4)nc2c(F)c1-c1ccc(F)c2sc(N)c(C#N)c12 [Compound 464, 4-(4-(3,8-diazabicyclo-[3.2.1]octan-3-yl)-6-(2-cyanoethyl)-8-fluoro-2-(((2R,7aS)-2-fluorotetra-hydro-1H-pyrrolizin-7a(5H)-yl)methoxy)quin-azolin-7-yl)-2-amino-7-fluorobenzo[b]thiophene-3-carbonitrile] |
| – | – | < 500 nM | < 500 nM | CN1CCC[C@H]1COc1nc(N2CCC(O)C(F)CC2)c2cc(Cl)c(-c3cccc4sc(N)nc34)c(F)c2n1 (stereo partly drawn) [Compound 466, 1-(7-(2-aminobenzo[d]-thiazol-4-yl)-6-chloro-8-fluoro-2-(((S)-1-methylpyr-rolidin-2-yl)methoxy)quin-azolin-4-yl)-5-fluoroazepan-4-ol] |
| – | – | > 500 nM | > 500 nM | Oc1cc(N2CCc3nc(OCC45CCCN4CCC5)nc(N4C[C@H]5CC[C@@H](C4)N5)c3CC2)c2ccccc2c1 [Compound 521, 4-(4-((1R,5S)-3,8-diazabicyclo[3.2.1]octan-3-yl)-2-((tetrahydro-1H-pyrrolizin-7a(5H)-yl)methoxy)-5,6,8,9-tetrahydro-7H-pyrimido[4,5-d]azepin-7-yl)naphthalen-2-ol] |
| – | – | < 500 nM | < 500 nM | CN1[C@@H]2CC[C@H]1CN(c1nc(OC[C@@]34CCCN3C[C@H](F)C4)nc3c(F)c(-c4ccc(F)c5sc(N)nc45)c(Cl)cc13)C2 [Compound 470, 4-(6-chloro-8-fluoro-2-(((2R,7aS)-2-fluorotetrahydro-1H-pyrrolizin-7a(5H)-yl)methoxy)-4-((1R,5S)-8-methyl-3,8-diazabicyclo[3.2.1]octan-3-yl)quinazolin-7-yl)-7-fluorobenzo[d]thiazol-2-amine] |
